Tests used:
[1] = test system: ex vivo naive Sprague Dawley rat hearts; assay: Langendorff isolated perfused rat heart (ex vivo); conditions: Langendorff apparatus; for left ventricular dP/dtmax (cardiac contractility) / left ventricular dP/dtmin (cardiac relaxation): isolated perfused rat hearts, compared with vehicle / control (DMSO)
Text: FIG. 1A is a graph of left ventricular dP/dtmax as a function of concentration of Example 210.0 compared with vehicle in ex vivo naive Sprague Dawley rat hearts obtained using the Langendorff apparatus.
FIG. 1B is a graph of left ventricular dP/dtmin as a function of concentration of Example 210.0 compared with vehicle in ex vivo naive Sprague Dawley rat hearts obtained using the Langendorff apparatus.
FIG. 2A is a graph of left ventricular dP/dtmax as a function of concentration of Example 51.0 compared with vehicle in ex vivo naive Sprague Dawley rat hearts obtained using the Langendorff apparatus.
FIG. 2B is a graph of left ventricular dP/dtmin as a function of concentration of Example 51.0 compared with vehicle in ex vivo naive Sprague Dawley rat hearts obtained using the Langendorff apparatus.

APJ receptor = APJ receptor (Homo sapiens (Human), UniProt P35414); assay: [35S]GTPγS binding assay on membranes from CHO cells stably expressing human APJ receptor; assay type: biochemical; conditions: membranes of CHO cells stably expressing human APJ receptor, means of several independent experiments, read-out: Activity hAPJ SPA EC50 IP
Procedure, shortened: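 EC50 values were obtained by non-linear regression of [35S]GTPγS (0.2 nM) binding after 90 min at RT, with nonspecific binding defined by 100 μM GTPγS. Reactions used human APJ–expressing CHO cell membranes on WGA PS beads in HEPES pH 7.5 buffer with 5 mM MgCl2, 200 mM NaCl, 3 μM GDP and 0.1% BSA.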

[2] = test system: isolated perfused rat hearts; assay: Ex vivo isolated perfused rat heart (Langendorff) assay, load independent inotropic/lusitropic effects; conditions: percent change over vehicle; for Isolated Heart Assay dP/dtmax (%): contractility; for Isolated Heart Assay dP/dtmin (%): relaxation
Text: Evidence for Load Independent Inotropic Effects with APJ Agonists Using Ex Vivo Assay (Isolated Perfused Rat Hearts)
Naive Sprague Dawley® SD rats (Harlan laboratories (Livermore, Calif. USA)) were anaesthetized and hearts were excised followed by cannulation in the Langendorff apparatus (Harvard apparatus, Holliston, Mass. USA) via aorta. The heart was perfused retrograde with modified oxygenated Krebs-Henseleit buffer (Skrzypiec-Spring M et al., (2007) J. Pharmacol Toxicol Methods 55: 113-126). The pressure of the solution causes the aortic valve to shut and the perfusate is then forced into the ostium and the coronary vessels. This allows the heart to beat for several hours. A balloon was inserted into the left ventricle (LV) to measure dP/dtmax (derivative of left ventricular pressure) as an index of cardiac contractility. The APJ agonist was perfused constantly in a dose dependent manner into the heart to examine cardiac contractility.
Example 210.0 was infused at different concentrations and load independent contractility was measured by index of LV dP/dtmax and the results are expressed as a percent change over vehicle. […] Example 210.0 was infused at different concentrations and load independent lusitropic effect (relaxation) was measured by index of LV dP/dtmin where results are expressed as percent change over vehicle. […] Example 51.0 was infused at different concentrations and load independent contractility was measured by index of LV dP/dtmax and the results are expressed as a percent change over vehicle. […] Example 51.0 was infused at different concentrations and load independent lusitropic effect (relaxation) was measured by index of LV dP/dtmin where results are expressed as percent change over vehicle.

heart failure rat model = assay: In vivo cardiac contractility in heart failure (MI) rat model; conditions: heart failure rats (LAD ligation), acute administration for 30 min
Procedure: Evidence for Improvement in Cardiac Contractility In Vivo in Heart Failure Rat Model
Based on the ex vivo findings in isolated heart assay, APJ agonists were dosed in vivo to investigate the translation of cardiac contractility in in vivo settings. Male Lewis rats (Charles River, USA) at 2-3 months of age were used for the study. Heart failure was induced by permanent ligation of the left descending coronary artery which results in injury to the heart with an ejection fraction of <35%. APJ agonists were administered dose dependently acutely for a period of 30 min. Administration of example compounds lead to an increase in cardiac contractility as measured by dP/dtmax (derivative of left ventricular pressure) (Table 27).

[3] = test system: MI-induced heart failure rats; assay: Cardiovascular effects of Example 56.0 and captopril/losartan on MI-induced heart failure rats; assay type: in vivo, rat; conditions: captopril alone, acute settings, heart failure rats in vivo
Procedure: Cardiovascular Effects of Example 56.0 and Captopril/Losartan on MI-Induced Heart Failure Rats
Male Lewis rats at 2-3 months of age were used for the study. MI was induced by ligation of the LAD. Echocardiography (Echo) was performed at one-week post-MI on rats for verification of infarct size and animal enrollment Animals with ejection fractions more than 40% or no visible infarct in myocardium were excluded from the study. All eligible MI rats were randomly divided into 3 groups: 1) those treated with vehicle; 2) those treated with losartan (0.5 g/L in drink water); and 3) those treated with captopril (0.5 g/L in drink water). Treatments were initiated approximately five weeks post-MI and animals were continuously treated with losartan and captopril in drinking water up to 15 days prior to being assigned into each subgroup. These subgroup groups included the following: 1) cohort treated with vehicle; 2) cohort treated with Example 56.0 at various doses; 3) cohort treated only with losartan; 4) cohort treated with losartan and Example 56.0 at various doses; 5) cohort treated only with captopril; and 6) cohort treated with captopril and Example 56.0 at various doses. A Millar PV catheter was inserted into the right common carotid artery and then advanced to the left ventricle (LV) for cardiac hemodynamic assessment and the peripheral arterial pressure was also monitored by a pressure transducer via a femoral artery access in all rats. Following hemodynamic stabilization, baseline steady-state data was acquired Animals in any Example 56 treated group received intravenous infusion of Example 56.0 in a dose-escalated fashion during cardiac hemodynamic assessment. Blood was drawn for actual PK exposure to derive a PK/PD profile.

isolated rat heart = assay: Isolated rat heart assay with APJ agonist in the presence or absence of AT1R blocker losartan; conditions: losartan alone compared to control (DMSO)
Text: Evidence for Blockade of AT1R Signaling Enhances the APJ Receptor Signaling Using Ex-Vivo (Isolated Rat Heart Assay) and In Vivo (Myocardial Infraction (MI)-Induced Heart Failure Model)
Naive Sprague Dawley® SD rats were anaesthetized and hearts were excised followed by cannulation in the Langendorff apparatus via aorta. The heart was perfused retrograde with modified oxygenated Krebs-Henseleit buffer. The pressure of the solution causes the aortic valve to shut and the perfusate was then forced into the ostium and the coronary vessels. This allowed the heart to beat for several hours. A balloon was inserted into the left ventricle to measure dp/dtmax as an index of cardiac contractility. The APJ agonist (Example 56.0) was perfused in the presence or absence of AT1R blocker losartan.

Chain of APJ receptor (P35414 whole entry): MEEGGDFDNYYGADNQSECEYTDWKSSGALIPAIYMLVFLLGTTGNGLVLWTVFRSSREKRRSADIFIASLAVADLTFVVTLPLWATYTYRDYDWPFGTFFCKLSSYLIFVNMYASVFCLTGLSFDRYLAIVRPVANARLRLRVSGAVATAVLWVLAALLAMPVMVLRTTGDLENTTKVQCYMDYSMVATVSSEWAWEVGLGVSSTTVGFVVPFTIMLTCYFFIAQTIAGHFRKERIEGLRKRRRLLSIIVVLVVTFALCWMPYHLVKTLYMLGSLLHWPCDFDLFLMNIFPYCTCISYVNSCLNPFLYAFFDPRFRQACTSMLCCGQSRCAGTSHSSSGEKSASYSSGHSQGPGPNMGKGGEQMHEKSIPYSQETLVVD

Structure (SMILES)	EC50 (APJ receptor) [nM]	Isolated Heart Assay dP/dtmax (%) [2] [%]	Isolated Heart Assay dP/dtmin (%) [2] [%]	MI Rat Model dP/dtmax (%) (heart failure rat model)	other results
COc1cccc(OC)c1-n1c(NS(=O)(=O)CCc2ccc(F)cc2C#N)nnc1-c1ccco1 [Example 210.0, 2-(2-Cyano-4-fluorophenyl)-N-(4-(2,6-dimethoxyphenyl)-5-(2-furanyl)-4H-1,2,4-triazol-3-yl)ethanesulfonamide]	3.2	25.9	34.0	95.6%	left ventricular dP/dtmax (cardiac contractility) [1]: increases load independent cardiac contractility; left ventricular dP/dtmin (cardiac relaxation) [1]: increases load independent cardiac relaxation
COc1cccc(OC)c1-n1c(NS(=O)(=O)CCc2ccc(Cl)cc2)nnc1-c1ccco1 [Example 111.0, 2-(4-Chlorophenyl)-N-(4-(2,6-dimethoxyphenyl)-5-(furan-2-yl)-4H-1,2,4-triazol-3-yl)ethanesulfonamide]	7.8	19.5	24.9	97%	
COc1cccc(OC)c1-n1c(NS(=O)(=O)[C@H](C)Cc2ccc(Cl)cc2)nnc1-c1ccco1 (single isomer, unassigned) [Example 205.0, (2R)-1-(4-chlorophenyl)-N-(4-(2,6-dimethoxyphenyl)-5-(2-furanyl)-4H-1,2,4-triazol-3-yl)-2-propanesulfonamide or (2S)-1-(4-chlorophenyl)-N-(4-(2,6-dimethoxyphenyl)-5-(2-furanyl)-4H-1,2,4-triazol-3-yl)-2-propanesulfonamide]	2.3	18.8	20.5		
COc1cccc(OC)c1-n1c(NS(=O)(=O)[C@@H](C)[C@H](OC)c2ncc(C)cn2)nnc1-c1ccc(C)o1 [Example 261.0]	0.13	34.5	53.8	30%	
C[C@H](CS)C(=O)N1CCC[C@H]1C(=O)O [Captopril, captopril, reference compound]					contractility or ejection fraction [3]: does not show a marked improvement
COc1cccc(OC)c1-n1c(NS(=O)(=O)CCN2C(=O)N(C)CC[C@@H]2C)nnc1-c1ccc(C)o1 (single isomer, unassigned) [Example 204.0, N-(4-(2,6-Dimethoxyphenyl)-5-(5-methyl-2-furanyl)-4H-1,2,4-triazol-3-yl)-2-((6S)-3,6-dimethyl-2-oxotetrahydro-1 (2H)-pyrimidinyl)ethanesulfonamide ethanesulfonamide or N-(4-(2,6-dimethoxyphenyl)-5-(5-methyl-2-furanyl)-4H-1,2,4-triazol-3-yl)-2-((6R)-3,6-dimethyl-2-oxotetrahydro-1(2H)-pyrimidinyl)ethanesulfonamide]	0.26	24.6	29.0	No effect	
CCCCc1nc(Cl)c(CO)n1Cc1ccc(-c2ccccc2-c2nn[nH]n2)cc1 [losartan]					left ventricular (LV) developed pressure (DevP) ([1]; compared with control (DMSO)): no impact on developed pressure; left ventricular (LV) systolic pressure (Sys) ([1]; compared with control (DMSO)): no impact on systolic pressure; left ventricular dP/dtmax (cardiac contractility) [1]: no impact on cardiac contraction; left ventricular dP/dtmin (cardiac relaxation) [1]: no impact on cardiac relaxation; cardiac contraction (dp/dtmax) (isolated rat heart): did not have any impact; cardiac relaxation (dp/dtmin) (isolated rat heart): did not have any impact; developed pressure (DevP) (isolated rat heart): did not have any impact; systolic pressure (Sys) (isolated rat heart): did not have any impact
COc1cccc(OC)c1-n1c(NS(=O)(=O)[C@@H](C)[C@H](O)c2ncc(F)cn2)nnc1-c1ccc(C)o1 [Example 115.0, (1R,2S)-N-(4-(2,6-dimethoxyphenyl)-5-(5-methylfuran-2-yl)-4H-1,2,4-triazol-3-yl)-1-(5-fluoropyrimidin-2-yl)-1-hydroxypropane-2-sulfonamide]	0.2	32.6	34.7	30%	
COc1cccc(OC)c1-n1c(NS(=O)(=O)CCc2ccc(F)cn2)nnc1-c1ccco1 [Example 41.0, N-(4-(2,6-dimethoxyphenyl)-5-(2-furanyl)-4H-1,2,4-triazol-3-yl)-2-(5-fluoro-2-pyridinyl)ethanesulfonamide]		22.1	22.7		
COc1cccc(OC)c1-n1c(NS(=O)(=O)[C@@H](C)Cc2ncc(F)cn2)nnc1-c1ccco1 (single isomer, unassigned) [Example 51.0, (2S)—N-(4-(2,6-Dimethoxyphenyl)-5-(2-furanyl)-4H-1,2,4-triazol-3-yl)-1-(5-fluoro-2-pyrimidinyl)-2-propanesulfonamide or (2R)—N-(4-(2,6-dimethoxyphenyl)-5-(2-furanyl)-4H-1,2,4-triazol-3-yl)-1-(5-fluoro-2-pyrimidinyl)-2-propanesulfonamide]	1	40.6	33.8	38%	
COc1cccc(OC)c1-n1c(NS(=O)(=O)CCc2ncc(C)cn2)nnc1-c1ccc(C)o1 [Example 26.0, N-(4-(2,6-dimethoxyphenyl)-5-(5-methyl-2-furanyl)-4H-1,2,4-triazol-3-yl)-2-(5-methyl-2-pyrimidinyl)ethanesulfonamide]	0.42	10.20	11.1	58%	
COc1cccc(OC)c1-n1c(NS(=O)(=O)[C@@H](C)Cc2ncc(F)cn2)nnc1-c1ccc(C)o1 (single isomer, unassigned) [Example 108.0, (2S)—N-(4-(2,6-Dimethoxyphenyl)-5-(5-methyl-2-furanyl)-4H-1,2,4-triazol-3-yl)-1-(5-fluoro-2-pyrimidinyl)-2-propanesulfonamide or (2R)—N-(4-(2,6-dimethoxyphenyl)-5-(5-methyl-2-furanyl)-4H-1,2,4-triazol-3-yl)-1-(5-fluoro-2-pyrimidinyl)-2-propanesulfonamide]	0.25	38.8	30.1		
